Read-outs that look alike come from different tables or passages of the source.
Columns and labels:
Spodoptera littoralis = assay: B-1 insecticidal stomach-poison action on Spodoptera littoralis (sprayed cotton plants); assay type: in vivo; conditions: Wirkstoffkonzentration 3 ppm; nach 24 Stunden; L1 larvae on sprayed cotton plants
Method: Eingetopfte Baumwollpflanzen im 5-Blatt-Stadium werden mit einer acetonisch/wässrigen Versuchslösung besprüht, die 3, 12,5 oder 50 ppm der zu prüfenden Verbindung enthält.
Nach dem Antrocknen des Belags werden die Pflanzen mit ca. 30 Larven (L₁-Stadium) von Spodoptera littoralis besetzt. Pro Versuchsverbindung und pro Test-Spezies verwendet man zwei Pflanzen. Der Versuch wird bei ca. 24°C und 60 % relativer Luftfeuchtigkeit durchgeführt. Auswertungen und Zwischenauswertungen auf moribunde Tiere, Wachstum und Larven und Frassschäden erfolgen nach 24 Stunden, 48 Stunden und 72 Stunden.

[1] = system: L₁-Larven von Lucilia sericata; assay: B-3 action against L1 larvae of Lucilia sericata (larval culture medium); assay type: in vivo; conditions: after 4 days; for Wirkung (Mortalitätsrate): 100 ppm; for mortality at 100 ppm: Lucilia sericata, 96 h, read-out: Wirkung (Mortalitätsrate)
Method: 1 ml einer wässrigen Suspension der zu prüfenden Aktivsubstanz werden so mit 3 ml eines speziellen Larvenzuchtmediums bei ca. 50°C vermischt, dass ein Homogenisat von wahlweise 250 ppm oder 100 ppm Wirkstoffgehalt entsteht. In jede Reagenzglas-Probe werden ca. 30 Lucilia-Larven (L₁) eingesetzt. Nach 4 Tagen wird die Mortalitätsrate bestimmt. Verbindungen der Formel I aus den Tabellen, wie z.B. die Verbindungen Nr. 2.8, 2.17, 2.31, 2.33, 2.35, 2.43, 2.1, 2.18 und 2.45 erzielten mit 100 ppm eine Wirkung von 100 %.

[2] = system: Haemonchus concortus und Trichostrongylus colubriformis; assay: B-5 test on sheep infected with nematodes (worm egg count in faeces); assay type: in vivo, Schafe; conditions: 0,2 mg/kg, single dose by stomach tube or intraruminal injection; compared with untreated infected sheep
Method: Der Wirkstoff wird als Suspension formuliert mit einer Magensonde oder durch Injektion in den Pansen eines Schafes gegeben, das mit Haemonchus concortus und Trychostrongylus colubriformis künstlich infiziert worden ist. Pro Dosis werden 1 bis 3 Tiere verwendet. Jedes Schaf wird nur einmal mit einer einzigen Dosis behandelt, und zwar wahlweise mit 0,5 mg oder 0,2 mg/kg Körpergewicht. Die Evaluierung erfolgt durch Vergleich der Anzahl der vor und nach Behandlung im Kot der Schafe ausgeschiedenen Wurmeier.
Gleichzeitig und gleichartig infizierte aber unbehandelte Schafe dienen als Kontrolle.

Aphis craccivora = assay: B-6 contact action on Aphis craccivora (sprayed pea seedlings); assay type: in vivo; conditions: 12,5 ppm, after 3 days; for mortality at 12.5 ppm: Aphis craccivora, 72 h, read-out: Abtötung
Excerpt: Erbsenkeimlinge, die mit sämtlichen Entwicklungsstadien der Laus infiziert sind, werden mit einer aus einem Emulsionskonzentrat hergestellten Wirkstofflösung besprüht, die wahlweise 50 ppm, 25 ppm oder 12,5 ppm Wirkstoff enthält. Nach 3 Tagen wird auf mehr als 80 % tote bzw. abgefallene Blattläuse ausgewertet. Nur bei dieser Wirkungshöhe wird ein Präparat als wirksam eingestuft.

Dermanyssus gallinae = assay: B-9 miticidal action against Dermanyssus gallinae; assay type: in vivo; conditions: for Wirkung (Mortalität): 4320 min; for mortality at 100 ppm: Dermanyssus gallinae, 72 h, read-out: Wirkung (Mortalität)
Method: 2 bis 3 ml einer Testlösung (100, 10, 1 und 0,1 ppm Aktivsubstanz) werden in einen nach oben offenen Glasbehälter gegeben und ca. 200 Milben in unterschiedlichen Entwicklungsstadien in diesen Behälter eingesetzt. Der Glasbehälter wird mit einem Wattebausch verschlossen und 10 Minuten gleichmässig, bis zur vollständigen Benetzung der Milben geschüttelt. Danach wird der Behälter umgekehrt hingestellt, bis die überschüssige Testlösung von der Watte aufgesogen ist. Der Behälter wird erneut gekehrt und die behandelten […] zur Evaluierung der Wirksamkeit der Testsubstanzen drei Tage unter Laborbedingungen beobachtet, wobei die Mortalität als Massstab für Wirksamkeit herangezogen wird.

Aedes aegypti = assay: B-7 larvicidal action against Aedes aegypti; assay type: in vivo; conditions: 1,6 ppm; nach einem Tag
Method: Auf die Oberfläche von 150 ml Wasser, das sich in einem Behälter befindet, wird soviel einer 0,1 %igen acetonischen Lösung des Wirkstoffes pipettiert, dass Konzentrationen von wahlweise 10 ppm, 3,3 ppm und 1,6 ppm erhalten werden. Nach Verdunsten des Acetons wird der Behälter mit ca. 30-40 3 Tage alten Aedes-Larven beschickt. Nach 1, 2 und 5 Tagen wird die Mortalität geprüft.

[3] = system: OP-sensible Tetranychus urticae; assay: B-2 action against plant-damaging acarids, OP-sensitive Tetranychus urticae (sprayed bean plants); assay type: in vivo; conditions: Wirkstoffkonzentration 0,4 ppm; evaluated after seven days; all mite stages on bean plants
Method: Die Primärblätter von Bohnenpflanzen (Phaseolus vulgaris) werden 16 Stunden vor dem Versuch mit einem durch T. urticae infestierten, aus einer Massenzucht stammenden Blattstück belegt. Die so mit allen Milben-Stadien infestierten Pflanzen werden nach Entfernung des Blattstücks mit einer Versuchslösung bis zur Tropfnässe besprüht, die wahlweise 0,4 ppm oder 1,6 ppm der zu prüfenden Verbindung enthält. Die Temperatur in der Gewächshauskabine beträgt ca. 25°C.
Nach sieben Tagen wird unter dem Binokular auf Prozentsatz mobiler Stadien (Adulte und Nymphen) und auf vorhandene Eier ausgewertet.

[4] = system: Boophilus microplus (Biarra-Stamm); assay: B-4 acaricidal action against Boophilus microplus (injection into engorged female ticks, IR90); assay type: in vivo; conditions: injection of 1, 0,1 or 0,01 µg per tick; dose of the result not stated
Method: Auf einer PVC-Platte wird waagrecht ein Klebstreifen so befestigt, das darauf 10 mit Blut vollgesogene Zecken-Weibchen von Boophilus microplus (Biarra-Stamm) nebeneinander in einer Reihe mit dem Rücken aufgeklebt werden können. Jeder Zecke wird mit einer Injektionsnadel 1 µl einer Flüssigkeit injiziert, die eine 1:1-Mischung von Polyethylenglykol und Aceton darstellt und in der eine bestimmte Wirkstoffmenge von wahlweise 1, 0,1 oder 0,01 µg pro Zecke gelöst ist. Kontrolltiere erhalten eine wirkstofffreie Injektion. Nach der Behandlung werden die Tiere unter Normalbedingungen in einem Insektarium bei ca. 28°C und 80 % relativer Luftfeuchtigkeit gehalten, bis die Eiablage erfolgt und die Larven aus den Eiern der Kontrolltiere geschlüpft sind.
Die Aktivität einer geprüften Substanz wird mit der IR₉₀ bestimmt, d.h. es wird jene Wirkstoffdosis ermittelt, bei der noch nach 30 Tagen 9 von 10 Zeckenweibchen (= 90 %) Eier ablegen, die nicht schlupffähig sind.

Meloidogyne incognita = assay: B-8 soil-nematicidal action against Meloidogyne incognita (tomato plants, root-knot index); assay type: in vivo; conditions: 0,002 % Aktivsubstanz based on soil volume; after 4 weeks; untreated infected controls = 100 %
Method: Eier von Meloidogyne incognita werden in Sand eingemischt. Dieses Gemisch wird dann in 200 ml fassende Tontöpfe eingebracht (5000 Eier pro Topf). Am gleichen Tag wird pro Topf eine 3 Wochen alte Tomatenpflanze gepflanzt und der formulierte Wirkstoff mittels Druckapplikation in die Töpfe hineingegeben (0,002 % Aktivsubstanz bezogen auf das Bodenvolumen). Die eingetopften Pflanzen werden nun bei einer Temperatur von 26±1°C und einer relativen Luftfeuchtigkeit von 60 % in einem Gewächshaus aufgestellt. Nach Ablauf von 4 Wochen erfolgt eine Evaluierung durch Untersuchung der Pflanzen auf Wurzelgallbildung nach dem sogenannten Wurzelgall-Index ("Knot Index")

[5] = 100 ppm, observed for three days

Row | Molecule | Abtötung (Spodoptera littoralis) | Nematodenbefall (Reduktion der Wurmeier im Kot) [2] | Abtötung sämtlicher Larven (Aedes aegypti) | mortality at 100 ppm [1] | mortality at 12.5 ppm (Aphis craccivora) | mortality at 100 ppm (Dermanyssus gallinae; [5]) | further results
1 | 5-O-(1,2,4-Trizaol-1-yl)acetyl-13β-methyl-milbemycin A₄-Zink(II)-Komplex [Verbindung 2.35] | vollständige Abtötung | keinen Nematodenbefall | – | – | – | – | Wirkung (Mortalitätsrate) [1]: 100%; Abtötung (Aphis craccivora): 100%; Wirkung (Mortalität) (Dermanyssus gallinae; [5]): 100%
2 | 5-O-(3,4-Dihydro-2H-pyran-2-yl)carboxyacetyl-13β-methyl-milbemycin A₄ [Verbindung 2.31] | – | keinen Nematodenbefall | vollständige Abtötung | – | – | – | Wirkung (Mortalitätsrate) [1]: 100%; Wirkung (Mortalität) (Dermanyssus gallinae; [5]): 100%
3 | CC[C@H]1O[C@]2(CC[C@@H]1C)C[C@@H]1C[C@@H](C/C=C(\C)[C@H](C)[C@@H](C)/C=C/C=C3\CO[C@@H]4[C@H](OC(C)=O)C(C)=C[C@@H](C(=O)O1)[C@]34O)O2 [Verbindung 2.1, 5-O-Acetyl-13β-methyl-milbemycin A₄] | – | keinen Nematodenbefall | vollständige Abtötung | 100% | – | – | –
4 | CC[C@H]1O[C@]2(CC[C@@H]1C)C[C@@H]1C[C@@H](C/C=C(\C)[C@H](C)[C@@H](C)/C=C/C=C3\CO[C@@H]4[C@H](OC(=O)CCl)C(C)=C[C@@H](C(=O)O1)[C@]34O)O2 [Verbindung 2.8, 5-O-Chloracetyl-13β-methyl-milbemycin A₄] | vollständige Abtötung | keinen Nematodenbefall | vollständige Abtötung | 100% | 100% | 100% | Abtötung [3]: vollständige Abtötung; Wirkung (IR₉₀) [4]: sehr gute Wirkung
5 | CC[C@H]1O[C@]2(CC[C@@H]1C)C[C@@H]1C[C@@H](C/C=C(\C)[C@H](C)[C@@H](C)/C=C/C=C3\CO[C@@H]4[C@H](OC(=O)COC(C)=O)C(C)=C[C@@H](C(=O)O1)[C@]34O)O2 [Verbindung 2.17, 5-O-Acetoxy-acetyl-13β-methyl-milbemycin A₄] | – | keinen Nematodenbefall | vollständige Abtötung | 100% | 100% | 100% | Abtötung [3]: vollständige Abtötung; Restbefall (Wurzelgallbildung) (Meloidogyne incognita): 0-10%
6 | CC[C@H]1O[C@]2(CC[C@@H]1C)C[C@@H]1C[C@@H](C/C=C(\C)[C@H](CC)[C@@H](C)/C=C/C=C3\CO[C@@H]4[C@H](OC(=O)COC(C)=O)C(C)=C[C@@H](C(=O)O1)[C@]34O)O2 [Verbindung 2.18, 5-O-Acetoxy-acetyl-13β-ethyl-milbemycin A₄] | – | keinen Nematodenbefall | vollständige Abtötung | 100% | – | – | Restbefall (Wurzelgallbildung) (Meloidogyne incognita): 0-10%
7 | CC[C@H]1O[C@]2(CC[C@@H]1C)C[C@@H]1C[C@@H](C/C=C(\C)[C@H](C)[C@@H](C)/C=C/C=C3\CO[C@@H]4[C@H](OC(=O)Cn5cncn5)C(C)=C[C@@H](C(=O)O1)[C@]34O)O2 [Verbindung 2.33, 5-O-(1,2,4-Triazol-1-yl)-acetyl-13β-methyl-milbemycin A₄] | vollständige Abtötung | keinen Nematodenbefall | vollständige Abtötung | 100% | 100% | 100% | Wirkung (IR₉₀) [4]: sehr gute Wirkung; Restbefall (Wurzelgallbildung) (Meloidogyne incognita): 0-10%
8 | CC[C@H]1O[C@]2(CC[C@@H]1C)C[C@@H]1C[C@@H](C/C=C(\C)[C@H](C)[C@@H](C)/C=C/C=C3\CO[C@@H]4[C@H](OC(=O)COC)C(C)=C[C@@H](C(=O)O1)[C@]34O)O2 [Verbindung 2.43, 5-O-Methoxyacetyl-13β-methyl-milbemycin A₄] | vollständige Abtötung | keinen Nematodenbefall | vollständige Abtötung | 100% | 100% | – | Abtötung [3]: vollständige Abtötung
9 | CC[C@H]1O[C@]2(CC[C@@H]1C)C[C@@H]1C[C@@H](C/C=C(\C)[C@H](C)[C@@H](C)/C=C/C=C3\CO[C@@H]4[C@H](OC(=O)COC(=O)c5cccc(Cl)c5)C(C)=C[C@@H](C(=O)O1)[C@]34O)O2 [Verbindung 2.44, 5-O-(3-Chlorbenzoyloxy)-acetyl-13β-methyl-milbemycin A₄] | – | keinen Nematodenbefall | – | – | – | – | –
10 | CC[C@H]1O[C@]2(CC[C@@H]1C)C[C@@H]1C[C@@H](C/C=C(\C)[C@H](CC)[C@@H](C)/C=C/C=C3\CO[C@@H]4[C@H](OC(=O)CCl)C(C)=C[C@@H](C(=O)O1)[C@]34O)O2 [Verbindung 2.45] | – | keinen Nematodenbefall | – | 100% | – | – | –
11 | CC[C@H]1O[C@]2(CC[C@@H]1C)C[C@@H]1C[C@@H](C/C=C(\C)[C@H](C)[C@@H](C)/C=C/C=C3\CO[C@@H]4[C@H](OC(=O)COCOC)C(C)=C[C@@H](C(=O)O1)[C@]34O)O2 [Verbindung 2.48] | – | – | – | – | – | 100% | –
12 | CC[C@H]1O[C@]2(CC[C@@H]1C)C[C@@H]1C[C@@H](C/C=C(\C)[C@H](C)[C@@H](C)/C=C/C=C3\CO[C@@H]4[C@H](OC(=O)COc5ccccc5)C(C)=C[C@@H](C(=O)O1)[C@]34O)O2 [Verbindung 2.53] | – | keinen Nematodenbefall | – | – | – | – | –
13 | CC[C@H]1O[C@]2(CC[C@@H]1C)C[C@@H]1C[C@@H](C/C=C(\C)[C@H](C)[C@@H](C)/C=C/C=C3\CO[C@@H]4[C@H](OC(=O)COS(=O)(=O)c5ccc(C)cc5)C(C)=C[C@@H](C(=O)O1)[C@]34O)O2 [Verbindung 2.55] | – | – | – | – | – | – | mortality at 100 ppm (Dermanyssus gallinae): 100%
